# Test results published in patent publication US8435929B2, “1-aminocyclopropane carboxylic acid as a fruit thinner” (Valent BioSciences Corporation, priority 2009, dated 2013).
# Experiments:
# [1] = system: Chardonnay grapes; assay: Thinning study on Chardonnay grapes (cluster weight, berry weight, berries per rachis, rachis length); format: in vivo, grape; details: application at bloom
# Excerpt: Application of ACC on grapes during bloom reduced the cluster weight and number of berries/cm rachis (Table 15). However, ACC applications produce the highly undesirable effect of reducing the rachis length and cluster size. Similar results have been seen in trials on other grape varieties in Michigan, California, and Australia.
# [2] = system: Garnet Beauty peaches; assay: Field thinning study, fruit set of Garnet Beauty peaches; format: in vivo, peach; details: application at petal fall
# Procedure: (§1) A series of field studies on stone fruit thinning were performed over several seasons, on different varieties and in various locations to determine the consistency of the thinning effect of ACC. Even without the application of a chemical thinning agent, crop load (number of fruit remaining divided by the number of flowers or fruit prior to application) was variable. Chemical thinning of stone fruit is variable and dependent on many factors including variety and environment. An acceptable chemical thinning agent is one that gives a substantial and relatively consistent reduction in crop load for a given dose over a wide range of trials.
# Follow up studies confirmed that higher rates (500 or 750 ppm ACC) produced a moderate to heavy crop load on Babygold #5 at two locations (Tables 8 and 9) and Garnet Beauty (Table 10).
# [3] = system: Babygold #5 peach; assay: Field thinning study, fruit set of Babygold #5 peach; format: in vivo
# Procedure: as §1
# The effect of ACC rate and timing was determined. ACC was sprayed on Babygold #5 peach trees at bloom (Table 1) or shuck split (early fruitlet stage) (Table 2).
# [4] = system: Fuji apples; assay: Field thinning study, fruit set and fruit weight of Fuji apples; format: in vivo, apple
# Excerpt: ACC was foliar applied at the 10 or 20 mm fruit stage. […] Application of 100 ppm ACC was particularly effective in removing fruit when applied at the 20 mm fruit stage.
# Similarly, ACC applications at petal fall were not effective for thinning Fuji apples, but later applications (10 and 20 mm) were effective (Table 14).
# [5] = system: PF-27 peaches; assay: Field thinning study, ACC and ABA, fruit set of PF-27 peaches; format: in vivo, peach; details: application at shuck split
# Excerpt: Application of ACC alone at shuck split reduced fruit set in a dose dependent manner (Table 10).
# [6] = 100 ppm, application timing 10 mm
# [7] = 100 ppm, application timing 20 mm
# [8] = 300 ppm, application timing 10 mm
# [9] = 300 ppm, application timing 20 mm
# [10] = 1000 ppm, application timing 10 mm
# [11] = 1000 ppm, application timing 20 mm
compound,measurement,setting,value
"NC1(C(=O)O)CC1 [ACC, 1-aminocyclopropane carboxylic acid]",Berries per cm rachis,[1]; 100 ppm,3.1
same,Berry weight,[1]; 100 ppm,1.2 g
same,Cluster weight,[1]; 100 ppm,128 g
same,Rachis length (cm),[1]; 100 ppm,34 cm
same,Berries per cm rachis,[1]; 300 ppm,2.9
same,Berry weight,[1]; 300 ppm,1.2 g
same,Cluster weight,[1]; 300 ppm,78 g
same,Rachis length (cm),[1]; 300 ppm,23 cm
same,Berries per cm rachis,[1]; 1000 ppm,1.6
same,Berry weight,[1]; 1000 ppm,1.1 g
same,Cluster weight,[1]; 1000 ppm,24 g
same,Rachis length (cm),[1]; 1000 ppm,14 cm
same,Crop load (percent) of treated trees compared to the untreated control,[2]; 500 ppm,82%
same,Percent fruit set,[2]; 500 ppm,27%
same,Crop load (percent) of treated trees compared to the untreated control,[2]; 750 ppm,58%
same,Percent fruit set,[2]; 750 ppm,19%
same,Crop load (percent) of treated trees compared to the water control,"[3]; 100 ppm, application at bloom",90%
same,Crop load (percent) of treated trees compared to the water control,"[3]; 100 ppm, application at shuck split, 0.05% Regulaid adjuvant",102%
same,Crop load (percent) of treated trees compared to the water control,"[3]; 300 ppm, application at bloom",77%
same,Percent fruit set,"[3]; 300 ppm, application at bloom",57%
same,Percent fruit set,"[3]; 300 ppm, application at shuck split, 0.05% Regulaid adjuvant",61%
same,Crop load (percent) of treated trees compared to the water control,"[3]; 1000 ppm, application at bloom",40%
same,Percent fruit set,"[3]; 1000 ppm, application at bloom",30%
same,Percent fruit set,"[3]; 1000 ppm, application at shuck split, 0.05% Regulaid adjuvant",11%
same,Fruit weight,[4]; [6],95 g
same,Fruit/fruit cluster,[4]; [6],0.79
same,Fruit weight,[4]; [7],130 g
same,Fruit/fruit cluster,[4]; [7],0.54
same,Fruit weight,[4]; [8],117 g
same,Fruit/fruit cluster,[4]; [8],0.66
same,Fruit weight,[4]; [9],132 g
same,Fruit/fruit cluster,[4]; [9],0.41
same,Fruit per fruit cluster,"[4]; 500 ppm, timing 10 mm (6-7 mm) (Table 14 trial)",0.27
same,Fruit per fruit cluster,"[4]; 500 ppm, timing 20 mm (Table 14 trial)",0.33
same,Fruit per fruit cluster,"[4]; 500 ppm, timing petal fall (Table 14 trial)",0.49
same,Fruit weight,[4]; [10],157 g
same,Fruit/fruit cluster,[4]; [10],0.28
same,Fruit weight,[4]; [11],161 g
same,Fruit/fruit cluster,[4]; [11],0.03
same,Fruit per fruit cluster,"[4]; 1000 ppm, timing 10 mm (6-7 mm) (Table 14 trial)",0.10
same,Fruit per fruit cluster,"[4]; 1000 ppm, timing petal fall (Table 14 trial)",0.39
same,Thinning of Fuji apples (in words),[4]; applications at petal fall,not effective
same,Crop load (percent) of treated trees compared to the untreated control,[5]; 100 ppm,81%
same,Percent fruit set,[5]; 100 ppm,70%
same,Crop load (percent) of treated trees compared to the untreated control,[5]; 300 ppm,67%
same,Percent fruit set,[5]; 300 ppm,58%
same,Crop load (percent) of treated trees compared to the untreated control,[5]; 1000 ppm,15%
same,Percent fruit set,[5]; 1000 ppm,13%
